Laboratory results published in patent US8546389B2 (priority 2010, dated 2013).
pEC50, pIC50: −log10 of the molar value.

Tests used:
[1] = target: 1b (BK) NS5bΔ21 (Hepatitis C virus genotype 1b (isolate BK) (HCV), UniProt P26663); assay: HCV polymerase inhibition assay, genotype 1b; assay type: biochemical, HCV genotype 1b (BK); settings: 1b (BK) NS5bΔ21, 33P-GTP incorporation; read-out: 1b polymerase IC50 (range class)
Method: HCV polymerase reactions were carried out using a modified method of Howe et al., Antimicrobial Agents and Chemotherapy 2004 48(12): 4813-4821. Reactions contained a final concentration of, 0.5% DMSO, 50 nM, 1b (BK) NS5bΔ21, 20 mM Tris-HCl pH 7.5, 5 mM MgCl2, 5 mM MnCl2, 3 mM DTT, 0.05% BSA, 0.2 U/μL RNasin, 10 μg/mL Poly(rC) template, GTP (at Km) and 0.05 μCi/μL ^33P-GTP in a total reaction volume of 50 μL. Compounds were tested in a three fold dilution series, for example starting from 50 μM. Reactions were initiated with the addition of GTP and terminated after 1 hour with 50 μL ice cold 0.2 M EDTA. Terminated reactions were transferred to DEAE 96-well filter plates, unincorporated nucleotides washed from the filters and 50 μL scintillation fluid added prior to reading on a scintillation counter. Similarly, a genotype 3a (VRL-69) NS5bΔ21 polymerase enzyme assay was conducted using essentially the same method.
The compound concentration that reduced ^33P-GTP incorporation by 50% (IC50) was calculated using non-linear regression.

[2] = tested on: genotype 1b (Con 1) subgenomic replicon cell line; assay: HCV replicon assay, genotype 1b (Renilla luciferase); assay type: cell-based, HCV genotype 1b (Con 1); settings: Hepatitis C virus; genotype 1b replicon, 72 hours, luciferase; read-out: genotype 1b EC50 (range class)
Method: A genotype 1b (Con 1) subgenomic replicon cell line based on Blight et al., Science 2000 290: 1972-1974, modified to express a Renilla luciferase reporter gene was used to assess antiviral activity of test compounds. Cell cultures were maintained in a sub-confluent state in DMEM with glutamine, 10% heat-inactivated foetal bovine serum (FBS) and G418 (Geneticin®).
For assay, cells were seeded at a density of 7000 cells/well into 96 well tissue culture trays in culture media lacking G418. Compounds were tested in a three fold dilution series, for example starting from 50 uM. After 72 hours incubation at 37° C. and 5% CO2, Renilla luciferase activity was quantified via the Promega Renilla Luciferase or Renilla-Glo™ Luciferase Assay Systems (Promega corporation. The same method was employed for replicon assays using subgenomic genotype 1a and 2a replicon cell lines with a seeding cell density of 5000 cells/well for the 2a cell lines.
The compound concentration that reduced luciferase activity by 50% (EC50) was calculated using non-linear regression.

1b (BK) NS5bΔ21, sequence (P26663 2420-2989): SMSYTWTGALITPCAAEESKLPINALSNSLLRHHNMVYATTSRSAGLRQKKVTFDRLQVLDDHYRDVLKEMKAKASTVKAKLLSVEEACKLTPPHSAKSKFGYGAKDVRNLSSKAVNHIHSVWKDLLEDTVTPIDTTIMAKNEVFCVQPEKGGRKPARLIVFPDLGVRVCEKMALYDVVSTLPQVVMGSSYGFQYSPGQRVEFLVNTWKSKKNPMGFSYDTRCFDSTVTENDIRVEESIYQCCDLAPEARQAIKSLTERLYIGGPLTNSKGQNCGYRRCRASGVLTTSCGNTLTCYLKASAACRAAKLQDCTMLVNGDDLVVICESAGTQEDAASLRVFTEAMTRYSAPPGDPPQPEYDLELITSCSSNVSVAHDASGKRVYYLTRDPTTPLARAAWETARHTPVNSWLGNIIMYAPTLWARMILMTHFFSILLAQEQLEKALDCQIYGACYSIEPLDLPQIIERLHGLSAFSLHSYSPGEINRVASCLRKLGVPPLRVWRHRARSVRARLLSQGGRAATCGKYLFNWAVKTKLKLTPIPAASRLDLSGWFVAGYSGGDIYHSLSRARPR

| Compound | pIC50 [1] | pEC50 [2] |
| --- | --- | --- |
| CNC(=O)c1c2cc(C3CC3)c(N(CCCO)S(C)(=O)=O)cc2nn1-c1ccc(Oc2ccccc2F)cc1 [Compound 29] | > 6.00 | > 6.00 |
| CNC(=O)c1c2cc(C3CC3)c(N(CCCNC(=O)c3ccnnc3)S(C)(=O)=O)cc2nn1-c1ccc(Br)cc1 [Compound 178] | > 6.00 | 5.00 to 6.00 |
| CCN(c1cc2nn(-c3ccc(Cl)c(F)c3)c(C(=O)NC)c2cc1C1CC1)S(C)(=O)=O [Compound 239] | > 6.00 | > 6.00 |
| CNC(=O)c1c2cc(C3CC3)c(N(CCCO)S(C)(=O)=O)cc2nn1-c1ccc(C)c(F)c1 [Compound 206] | > 6.00 | > 6.00 |
| CNC(=O)c1c2cc(C3CC3)c(N(CCC(=O)NS(=O)(=O)c3cccs3)S(C)(=O)=O)cc2nn1-c1ccc(Br)cc1 [Compound 153] | > 6.00 | 4.30 to 5.00 |
| CCN(c1cc2nn(-c3ccc(NCC(C)C)cc3)c(C(=O)NC)c2cc1OC)S(C)(=O)=O [Compound 124] | 5.00 to 6.00 | 5.00 to 6.00 |
| CNC(=O)c1c2cc(C3CC3)c(N(CCCS(N)(=O)=O)S(C)(=O)=O)cc2nn1-c1ccc(Br)cc1 [Compound 102, 2-(4-Bromophenyl)-5-cyclopropyl-N-methyl-6-[methylsulfonyl(3-sulfamoylpropyl)amino]-2H-indazole-3-carboxamide] | > 6.00 | 5.00 to 6.00 |
| CCS(=O)(=O)NC(=O)CCCN(c1cc2nn(-c3ccc(Br)cc3)c(C(=O)NC)c2cc1C1CC1)S(C)(=O)=O [Compound 193] | > 6.00 | 5.00 to 6.00 |
| CNC(=O)c1c2cc(C3CC3)c(N(C)S(C)(=O)=O)cc2nn1-c1ccc(Cl)cc1 [Compound 237] | > 6.00 | > 6.00 |
| CNC(=O)c1c2cc(C3CC3)c(N(CC(F)F)S(C)(=O)=O)cc2nn1-c1ccc(Cl)cc1 [Compound 254] | > 6.00 | > 6.00 |
| CNC(=O)c1c2cc(C3CC3)c(N(CCCNC(=O)C(C)C)S(C)(=O)=O)cc2nn1-c1ccc(Cl)cc1 [Compound 242] | > 6.00 | > 6.00 |
| CCN(c1cc2nn(-c3ccc(C)c(F)c3)c(C(=O)NC)c2cc1C1CC1)S(C)(=O)=O [Compound 244] | > 6.00 | > 6.00 |
| CNC(=O)c1c2cc(C3CC3)c(N(CCO)S(C)(=O)=O)cc2nn1-c1ccc(Nc2ccccc2)cc1 [Compound 27] | > 6.00 | > 6.00 |
| CNC(=O)c1c2cc(C3CC3)c(N(CCCNC(=O)[C@H]3CCCC[C@H]3C(=O)O)S(C)(=O)=O)cc2nn1-c1ccc(Br)cc1 [Compound 251] | > 6.00 | > 6.00 |
| CNC(=O)c1c2cc(C3CC3)c(N(CCCC(=O)Oc3ccccc3)S(C)(=O)=O)cc2nn1-c1ccc(Br)cc1 [Compound 93, phenyl 4-{[2-(4-bromophenyl)-5-cyclopropyl-3-(methylcarbamoyl)-2H-indazol-6-yl](methylsulfonyl)amino}butanoate] | > 6.00 | 5.00 to 6.00 |
| CNC(=O)c1ccccc1C(=O)NCCCN(c1cc2nn(-c3ccc(Br)cc3)c(C(=O)NC)c2cc1C1CC1)S(C)(=O)=O [Compound 151] | > 6.00 | 5.00 to 6.00 |
| CNC(=O)c1c2cc(C3CC3)c(N(CCCC(=O)O)S(C)(=O)=O)cc2nn1-c1ccc(Br)cc1 [Compound 89, 4-{[2-(4-bromophenyl)-5-cyclopropyl-3-(methylcarbamoyl)-2H-indazol-6-yl](methylsulfonyl)amino}butanoic acid] | > 6.00 | 4.30 to 5.00 |
| CNC(=O)c1c2cc(C3CC3)c(N(CCCNC(=O)c3cn(C)cn3)S(C)(=O)=O)cc2nn1-c1ccc(Br)cc1 [Compound 167] | > 6.00 | > 6.00 |
| CNC(=O)CCC(=O)NCCCN(c1cc2nn(-c3ccc(Br)cc3)c(C(=O)NC)c2cc1C1CC1)S(C)(=O)=O [Compound 152] | > 6.00 | 4.30 to 5.00 |
| CNC(=O)c1c2cc(C3CC3)c(N(CCC(CO)CO)S(C)(=O)=O)cc2nn1-c1ccc(Cl)cc1 [Compound 238] | > 6.00 | 5.00 to 6.00 |
| CNC(=O)c1c2cc(C3CC3)c(N3CCN(C)S3(=O)=O)cc2nn1-c1ccc(Br)cc1 [Compound 104, 2-(4-bromophenyl)-5-cyclopropyl-N-methyl-6-(5-methyl-1,1-dioxido-1,2,5-thiadiazolidin-2-yl)-2H-indazole-3-carboxamide] | 4.30 to 5.00 | 5.00 to 6.00 |

| Compound | pIC50 [1] | pEC50 [2] |
| --- | --- | --- |
| CCN(c1cc2nn(-c3ccc(Oc4ccc(F)cc4)cc3)c(C(=O)NC)c2cc1C1CC1)S(C)(=O)=O [Compound 23] | > 6.00 | > 6.00 |
| CCN(c1cc2nn(-c3ccc(Br)cc3)c(C(=O)NC)c2cc1C1CC1)S(=O)(=O)C(F)(F)F [Compound 258] | 5.00 to 6.00 | 5.00 to 6.00 |
| CNC(=O)c1c2cc(C3CC3)c(N(CCCNC(=O)c3ccco3)S(C)(=O)=O)cc2nn1-c1ccc(Br)cc1 [Compound 181] | > 6.00 | > 6.00 |
| CNC(=O)c1c2cc(C3CC3)c(N(CCCOC(=O)c3ccccc3C(=O)O)S(C)(=O)=O)cc2nn1-c1ccc(Oc2ccc(F)cc2)cc1 [Compound 115] | > 6.00 | 5.00 to 6.00 |
| CNC(=O)c1c2cc(C3CC3)c(N(CCCC(=O)NS(=O)(=O)C(F)(F)F)S(C)(=O)=O)cc2nn1-c1ccc(Cl)cc1 [Compound 217] | > 6.00 | 5.00 to 6.00 |
| CNC(=O)c1c2cc(C3CC3)c(N(CC(F)F)S(C)(=O)=O)cc2nn1-c1ccc(Br)cc1 [Compound 253] | > 6.00 | > 6.00 |
| CCN(c1cc2nn(-c3ccccc3)c(C(=O)NC)c2cc1OC)S(C)(=O)=O [Compound 125] | 4.30 to 5.00 | 5.00 to 6.00 |
| CCN(c1cc2nn(-c3ccc(Br)c(F)c3)c(C(=O)NC)c2cc1C1CC1)S(C)(=O)=O [Compound 236] | > 6.00 | > 6.00 |
| CNC(=O)c1c2cc(C3CC3)c(N(CCCO)S(C)(=O)=O)cc2nn1-c1ccc(C2CC2)cc1 [Compound 53, 5-cyclopropyl-2-(4-cyclopropylphenyl)-6-[(3-hydroxypropyl)(methylsulfonyl)amino]-N-methyl-2H-indazole-3-carboxamide] | 5.00 to 6.00 | > 6.00 |
| CNC(=O)CCN(c1cc2nn(-c3ccc(Br)cc3)c(C(=O)NC)c2cc1C1CC1)S(C)(=O)=O [Compound 148] | > 6.00 | 5.00 to 6.00 |
| CNC(=O)c1c2cc(C3CC3)c(N(CCCNC(=O)CCN(C)C)S(C)(=O)=O)cc2nn1-c1ccc(Br)cc1 [Compound 185] | 5.00 to 6.00 | 5.00 to 6.00 |
| CNC(=O)c1c2cc(C3CC3)c(N(CCO)S(C)(=O)=O)cc2nn1-c1ccc(F)cc1 [Compound 14, 5-cyclopropyl-2-(4-fluorophenyl)-6-[(2-hydroxyethyl)(methylsulfonyl)amino]-N-methyl-2H-indazole-3-carboxamide] | 4.30 to 5.00 | 5.00 to 6.00 |
| CNC(=O)c1c2cc(C3CC3)c(N(CCCN(C)C)S(C)(=O)=O)cc2nn1-c1ccc(Cl)cc1 [Compound 199] | 5.00 to 6.00 | > 6.00 |
| C=C(C)c1cc2c(C(=O)NC)n(-c3ccc(F)cc3)nc2cc1N(CC)S(C)(=O)=O [Compound 129] | 4.30 to 5.00 | 5.00 to 6.00 |
| C=C(C)c1ccc(-n2nc3cc(N(CC)S(C)(=O)=O)c(C4CC4)cc3c2C(=O)NC)cc1 [Compound 192] | 5.00 to 6.00 | > 6.00 |
| CNC(=O)c1c2cc(C3CC3)c(N(CC(C)O)S(C)(=O)=O)cc2nn1-c1ccc(Br)cc1 (stereo not drawn) [Compound 106, 2-(4-Bromophenyl)-5-cyclopropyl-6-[2-hydroxypropyl(methylsulfonyl)amino]-N-methyl-2H-indazole-3-carboxamide] | 5.00 to 6.00 | 5.00 to 6.00 |
| CCCN(c1cc2nn(-c3ccc(Oc4ccc(F)cc4)cc3)c(C(=O)NC)c2cc1C1CC1)S(C)(=O)=O [Compound 113] | > 6.00 | > 6.00 |
| CNC(=O)c1c2cc(C3CC3)c(N(CCCNC(=O)[C@H]3COCCN3C)S(C)(=O)=O)cc2nn1-c1ccc(Cl)cc1 [Compound 205] | > 6.00 | > 6.00 |
| CNC(=O)CCCN(c1cc2nn(-c3ccc(Br)cc3)c(C(=O)NC)c2cc1C1CC1)S(C)(=O)=O [Compound 143] | > 6.00 | 5.00 to 6.00 |
| CNC(=O)c1c2cc(C3CC3)c(N(CCCNC(=O)c3cnoc3C)S(C)(=O)=O)cc2nn1-c1ccc(Br)cc1 [Compound 173] | > 6.00 | > 6.00 |
| CCOC(=O)CCCN(c1cc2nn(-c3ccc(C)cc3)c(C(=O)NC)c2cc1C1CC1)S(C)(=O)=O [Compound 230] | > 6.00 | > 6.00 |
